{"source": "patent US9486461B2", "about": "“Methods and compositions for inducing apoptosis by stimulating ER stress” (UNIVERSITY OF SOUTHERN CALIFORNIA, priority 2007, dated 2016)", "key": {"U251 glioblastoma cells": {"test_system": "U251 glioblastoma cells", "assay": "TUNEL assay in cell culture, U251", "type": "cell-based, human", "details": "U251, 30 and 50 μmol/L, 48 hours", "method": "U251 glioblastoma cells were treated with different drugs, and various parameters of cell growth and cell death were comparatively analyzed. As controls, cells remained either non-treated (Co) or were treated with the solvent DMSO alone. (FIG. 8A) Cells were treated with 30 or 50 μM DMC for 48 hours and the effects on cell growth/survival and on cell death were determined by various assays. […] Below the three panels, the expression levels of the ER stress indicators CHOP, GRP78, and caspase 4 at the end of the 48 hour drug treatment is shown, as determined by Western blot analysis with specific antibodies (actin served as a loading control. (FIG. 8B) Cells were treated with various concentrations of different drugs for 48 hours, as indicated, and cell death was measured with the cell death ELISA kit. (FIG. 8C) Cells were treated with DMC or various coxibs and traditional NSAIDs for 48 hours, as indicated, and cell growth and survival was determined with the conventional MTT assay (control, non-treated cells were set at 100%). MTT assays were performed in 96-well plates with the use of 3.0-8.0×10^3 cells per well as described in detail elsewhere (34). In parallel, the expression levels of CHOP and GRP78 protein were determined by Western blot analysis.\nWe next investigated the relationship of ER stress induction and cell death. […]"}, "[1]": {"test_system": "Tumor-associated Brain Endothelial Cells (TuBEC)", "assay": "Trypan blue exclusion, tumor-associated brain endothelial cells", "type": "cell-based", "details": "TMZ 300 uM and 20 uM DMC, 48 hours, then 12 days without drug", "method": "After drug treatment the cells were incubated for another 12 days in the absence of drug, in order to determine their long-term survival; at that time cytotoxicity was evaluated using the trypan blue exclusion technique. Results are presented as number of viable cells per group.\nTumor-associated Brain Endothelial Cells (TuBEC) were treated with TMZ (300 uM) and 20 uM DMC for 48 hours. The drugs were removed and cells were incubated for another 12 days; at that time cytotoxicity was evaluated using the trypan blue exclusion technique. Results are presented as number of viable cells per group."}, "[2]": {"test_system": "CHOP protein in U87 glioblastoma tumor tissue", "details": "shown previously (ref. 39); cited from earlier work"}}, "data": [{"smiles": "Cc1ccc(C)c(-c2cc(C(F)(F)F)nn2-c2ccc(S(N)(=O)=O)cc2)c1", "note": "[DMC, 4-[5-(2,5-dimethylphenyl)-3-(trifluoromethyl)-1H-pyrazol-1-yl]benzenesulfonamide]", "values": [{"measurement": "apoptosis (TUNEL)", "setting": "U251 glioblastoma cells", "value": "substantially increased apoptosis"}, {"measurement": "susceptibility of tumor vascular endothelial cells to TMZ", "setting": "[1]", "value": "increased the susceptibility"}, {"measurement": "dosage at which ER stress in tumor tissue in vivo begins to appear", "setting": "[2]", "value": "> 10", "unit": "mg/kg"}]}]}
